For this test, the system named is skin fungal conditions. The experiment in a line: Patients with skin fungal conditions treated with griseovulvin and an appropriate antibiotic, emollients ceased (Example 6). Type of test: in vivo, human. The text has this:
Most patients received an antihistamine for the first ten days to control itch. The patients ceased the use of lotions and other emollients, as well as the use of local and systemic corticosteroids.

Regarding `COC1=CC(=O)C[C@@H](C)[C@]12Oc1c(Cl)c(OC)cc(OC)c1C2=O` [griseovulvin], under “Patient A, after 35 days of treatment”, the “Appearance of "dry skin"” value is “cleared up considerably”. Moreover, the Fungus on skin result runs as follows: (Patient B, one week later) “improved dramatically”; (Patient C, after treatment) “significantly improved”. Also, the “Fungus growth on back of neck” value (Patient D, after seven weeks) is “significantly diminished”. For the same molecule, the “Fungal condition of skin” value (Patient F, after seven weeks of treatment) was “improving and peeling off”. Further, the “Fungal infection tinea barbae” value (Patient G, after seven weeks) was “significantly cleared”. Also, the “Skin with hair follicles infected by fungus” value (Patient H, after nine weeks of treatment) was “dramatically improved”.
